We go through three compounds from ChEMBL document CHEMBL4622909, “PARP inhibitor cyanine dye conjugate with enhanced cytotoxic and antiproliferative activity in patient derived glioblastoma cell lines” (Bioorg Med Chem Lett, 2020).

The source made the active and inactive calls. No cut-off for these calls is given here.

Assay [1] concerns GBM. The assay is described as follows: Antiproliferative activity against human patient derived GBM cells assessed as reduction in cell proliferation measured after 48 hrs by Edu incorporation assay relative to compound alone. The class given is functional.
Assay [2] has as its system GBM. As to the kind of experiment: cells. The class given is functional, cell-based. The conditions noted are these: Homo sapiens, 48 h.
Description: Synergistic antiproliferative activity against human patient derived GBM cells assessed as reduction in cell proliferation measured after 48 hrs in presence of temozolomide by Edu incorporation assay
The subject of assay [3] is GBM. The assay is described as follows: Synergistic cytotoxicity against human patient derived GBM cells assessed as reduction in cell viability measured after 48 hrs in presence of temozolomide by Hoechst staining based assay. The class given is functional.
Assay [4] deals with GBM. As to the kind of experiment: Antiproliferative activity against human patient derived GBM cells assessed as reduction in cell proliferation measured after 48 hrs by Edu incorporation assay. The assay is classed as functional, cell-based.
Assay [5] relates to GBM. As to the kind of experiment: Cytotoxicity against human patient derived GBM cells assessed as reduction in cell viability measured after 48 hrs by Hoechst staining based assay. The class given is functional.
For assay [6], the system named is GBM. The assay is described as follows: Antiproliferative activity against human patient derived GBM cells assessed as reduction in cell proliferation up to 100 uM measured after 48 hrs by Edu incorporation assay. The assay is classed as functional, cell-based.
Assay [7] relates to GBM. As to the kind of experiment: Potency index, ratio of IR-786 IC50 to test compound IC50 for synergistic cytotoxicity against human patient derived GBM cells assessed as reduction in cell viability measured after 48 hrs in presence of temozolomide by Hoechst staining based assay. The assay is classed as functional.
Assay [8] has as its system GBM. As to the kind of experiment: Potency index, ratio of rucaparib IC50 to test compound IC50 for human patient derived GBM cells assessed as reduction in cell viability measured after 48 hrs by Hoechst staining based assay. The assay is classed as functional.
Assay [9] has as its system GBM. As to the kind of experiment: Ratio of EC50 for cytotoxicity against human patient derived GBM assessed as reduction in cell viability measured after 48 hrs by Hoechst staining based assay to EC50 for synergistic cytotoxicity against human patient derived GBM assessed as reduction in cell viability measured after 48 hrs in presence of temozolomide by Hoechst staining based assay. The assay is classed as functional.

For assay [10], the system named is GBM. As to the kind of experiment: Potency index, ratio of IR-786 IC50 to test compound IC50 for human patient derived GBM cells assessed as reduction in cell viability measured after 48 hrs by Hoechst staining based assay. The class given is functional.

Regarding `CNCc1ccc(-c2[nH]c3cc(F)cc4c3c2CCNC4=O)cc1` [RUCAPARIB], the “Ratio IC50” value with GBM [1] came out at 24. For the same compound, the IC50 was found to be 2260 nM in the assay with GBM [2] and 53400 nM in the assay with GBM [4]. The EC50 in the assay with GBM [3] and in the assay with GBM [5] was more than 100000 nM in each case.

In the case of `Cn1nnc2c(C(N)=O)ncn2c1=O`, in the assay with GBM [6], the result was inactive.

In the case of `CN1/C(=C/C=C2\CCCC(/C=C/C3=[N+](C)c4ccccc4C3(C)C)=C2N2CCN(c3ccc(-c4[nH]c5cc(F)cc6c5c4CCNC6=O)cc3)CC2)C(C)(C)c2ccccc21.[I-]`, the “Ratio IC50” value in the assay with GBM [1] is listed as 2; in the assay on GBM [7] it was 7; in the assay on GBM [8], 780; in the assay on GBM [10], 13.5. The values for the IC50 in the assay with GBM [2] and in the assay on GBM [4] were 20 nM and 21 nM, respectively. Besides, the figures for the EC50 with GBM [3] and in the assay on GBM [5] were 56 nM and 128 nM, respectively. Further, in the assay on GBM [9], the “Ratio EC50” value is listed as 2.
